Values quoted from earlier work as cited in patent US20250275953A1, “VODOBATINIB FOR REDUCING PROGRESSION OF PARKINSON'S DISEASE” (Sun Pharma Advanced Research Company Ltd., priority 2022, published 2025).

Settings: nilotinib 150 and 300 mg; cited from earlier work

SMILES: Cc1cn(-c2cc(NC(=O)c3ccc(C)c(Nc4nccc(-c5cccnc5)n4)c3)cc(C(F)(F)F)c2)cn1 [Nilotinib, nilotinib]
- efficacy in Parkinson's disease patients: not efficacious
